What was measured:
MAO-A = tested on: T1, MAO-A; experiment: MAO-A activity assay in hESC-derived neurons stimulated with ATRA; format: cell-based, human; conditions: 1 μM ATRA 24 h, then TCP 5 μM, OLC 50 μM or OLP 50 μM for 24 h
T1 construct: endogenous in cells; host or cells: BJ human foreskin fibroblasts stimulated with DEX or HC
Method: An in vitro model of MDD was designed for stem cell-derived neuronal cells through incubation of 1 μM all-trans retinoic acid (Sigma-Aldrich PHR1187, St. Louis, MO, USA). All cell treatments were conducted in duplicate and replicated using independently differentiating neuronal plates.
Activity assays were commercially sourced from BioVision (Abcam, BioVision ab241031, Waltham, MA, USA) and were performed according to manufacturer’s instructions. The treatment groups were plated in duplicate on a black, flat 96-well microplate. The cells were homogenised in assay buffer using a microtube mixer at 4 °C and centrifuged at 10,000× g for 10 min. A Bradford assay was performed to determine the total protein concentration within each cell pellet (200 μg/well for BJ cells, 40 μg/well for hESC-derived neurons). Approximately 40 μL of supernatant was loaded into wells along with 10 μL of either […], or assay buffer for total MAO activity. A H2O2 standard was pipetted as supplied and 50 μL of reaction mix was pipetted into all wells. Using a CLARIOstar Plus Microplate Reader, (BMG Labtech, Ortenberg, Germany), fluorescence was measured kinetically at 25 °C for 60 min with Ex/Em = 535/587 nm.

purified MAO-A = target: T2, purified MAO-A (Homo sapiens, UniProt P21397); experiment: MAO-A direct screening assay (inhibitor screening kit); format: biochemical; conditions: purified enzyme; read-out: IC50, inhibition of MAO-A
T2 construct: purchased Sigma-Aldrich MAK295
T2 sequence (P21397 1-527): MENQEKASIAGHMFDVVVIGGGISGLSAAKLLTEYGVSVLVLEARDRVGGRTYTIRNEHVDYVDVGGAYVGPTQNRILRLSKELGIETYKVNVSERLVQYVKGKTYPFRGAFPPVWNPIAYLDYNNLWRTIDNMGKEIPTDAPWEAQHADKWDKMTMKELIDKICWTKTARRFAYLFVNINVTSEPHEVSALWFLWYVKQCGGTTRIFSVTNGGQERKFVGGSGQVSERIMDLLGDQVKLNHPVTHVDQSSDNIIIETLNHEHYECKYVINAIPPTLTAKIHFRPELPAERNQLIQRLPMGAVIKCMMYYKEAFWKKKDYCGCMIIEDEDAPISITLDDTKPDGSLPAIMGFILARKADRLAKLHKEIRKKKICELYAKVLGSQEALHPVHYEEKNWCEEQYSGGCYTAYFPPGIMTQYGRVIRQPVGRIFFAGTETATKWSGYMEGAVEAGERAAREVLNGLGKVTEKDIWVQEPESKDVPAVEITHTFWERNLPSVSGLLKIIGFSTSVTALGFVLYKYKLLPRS
Method: The assays were conducted for MAO-A and MAO-B according to the manufacturer’s instructions.

H3K4 mono-methylation = H3K4 mono-methylation in BJ cells (Western blotting); format: cell-based, human; conditions: 50 μM, 48 h, compared to untreated cells; effects more pronounced with DEX
Method: As described in the Supplementary Information, nuclear proteins extracted from the BJ cultures were directly assayed for LSD1 activity (Epigentek P-3076, Farmingdale, NY, USA). Fluorescence was read on a CLARIOstar Microplate Reader (BMG Labtech, Ortenberg, Germany) at Ex/Em = 530/590 nm (Figure S4). Histone proteins were extracted from the treated cultures and were analysed through Western blotting. The mono-methylation status of lysine on histone 3 (H3K4) was determined via immunodetection (Table S6).
100µL of Nuclear Extraction Buffer containing 0.2µL 1M DTT and 0.4µL PIC was then added to the remaining nuclei-containing pellets. Full resuspension was achieved through multiple rounds of vigorous vortexing and ice incubations (to maintain protein integrity). Once the entire pellet was visibly resuspended in NEB, tubes were centrifuged at 16,000g for 10 minutes. The resulting supernatant containing the nuclear extract fraction was transferred to clean 0.5mL tubes and stored at -80°C.
Acid extraction of histone proteins
Cells were washed in 10mL of pre-chilled PBS (1X) and detached from flask surface via mechanical disruption using a cell scraper. Cell solution was then transferred into a 15mL tube and centrifuged at 150g for 10 minutes. Supernatant was then discarded and the remaining cell pellet resuspended in 0.5mL PBS (1X) and transferred into a 1.5mL microcentrifuge tube. Cells were then centrifuged at 9400g for 20 seconds, after which the supernatant was removed and discarded. The remaining pellet was then briefly resuspended in 600µL of acid extraction lysis buffer (10mM KCl, 10mM HEPES, […]) containing cOmplete™ Mini Protease Inhibitor Cocktail (Sigma-Aldrich, Roche 11836153001, MO USA) and 0.3µL 1M DTT. This will cause cells to pre-swell, resulting in a reduced amount of PBS (1X) remaining in the microcentrifuge tube that may deter maximal cell lysis capacity. Cells were then centrifuged at 9400g for 20 seconds with the resultant supernatant aspirated and discarded. […]

Question: For COC(=O)[C@H](O)CC(=O)OCCc1ccc(O)c(O)c1 [OLP, oleohydroxypyretol], which “MAO-A activity in hESC-derived neurons” value (MAO-A) is on record?
Answer: significantly reduced

Question: And the IC50 (purified MAO-A)?
Answer: 850 nM

Question: And the “baseline levels of H3K4 mono-methylation in BJ cells” value (H3K4 mono-methylation)?
Answer: increased
